Reference: ChEMBL document CHEMBL1124812, “Vinblastine and vincristine are inhibitors of monoamine oxidase B” (J Med Chem, 1990)

Target: T1, Amine oxidase [flavin-containing] B (Bos taurus, UniProt P56560)
T1 sequence (P56560 whole entry): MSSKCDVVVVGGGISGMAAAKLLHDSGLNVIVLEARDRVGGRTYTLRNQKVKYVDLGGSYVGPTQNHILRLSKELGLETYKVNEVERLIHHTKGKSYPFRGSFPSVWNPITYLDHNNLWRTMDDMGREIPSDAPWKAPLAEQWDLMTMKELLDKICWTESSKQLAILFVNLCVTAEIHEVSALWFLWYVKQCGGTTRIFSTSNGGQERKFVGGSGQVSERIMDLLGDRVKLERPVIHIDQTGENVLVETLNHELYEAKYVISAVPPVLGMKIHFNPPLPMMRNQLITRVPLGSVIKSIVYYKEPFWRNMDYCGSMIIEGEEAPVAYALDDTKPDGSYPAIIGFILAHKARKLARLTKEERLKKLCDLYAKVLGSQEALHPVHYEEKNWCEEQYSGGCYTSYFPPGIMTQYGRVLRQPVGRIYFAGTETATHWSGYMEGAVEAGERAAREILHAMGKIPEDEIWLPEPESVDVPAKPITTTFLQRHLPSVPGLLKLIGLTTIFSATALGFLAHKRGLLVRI
Assay: Inhibitory activity against Monoamine oxidase B isolated from beef liver mitochondria was determined

Ki: 77 µM
Compound: CC[C@]1(O)C[C@@H]2CN(CCc3c([nH]c4ccccc34)[C@@](C(=O)OC)(c3cc4c(cc3OC)N(C)[C@H]3[C@@](O)(C(=O)OC)[C@H](OC(C)=O)[C@]5(CC)C=CCN6CC[C@]43[C@@H]65)C2)C1 [VINBLASTINE]
